One data set is described as follows: Acid stability. The data set is classed as physicochemical. To be noted: pH 1 where stated.
For data set [1], the system named is Staph. aureus 133. Briefly: Surviving mice after intraperitoneal infection and subcutaneous therapy. Conditions: 2 × 200 units/mouse s.c. The data set is classed as in vivo, white mice, CF1 strain. The protocol: The experiments on animals (see Table 3) were carried out with white mice of the CF1 strain. The infection took place intraperitoneally with the particular bacterium indicated.

Data set [2] has as its system Streptoc. faec. ATCC 9790. Briefly: MIC, liquid medium test tube series dilution test. The data set is classed as cell-based. Conditions: Strep. faec. (Enterococcus) ATCC 9790, 24 hours, 37°C. Put shortly: (§1)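 Penicillins were serially diluted in test tubes of complete liquid medium, inoculated, incubated 24 hours at 37°C, and inspected; the non-turbid tube of the series marked the minimum inhibitory concentration (units/ml).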

For a further data set, the system named is E. coli C 165. Briefly: MIC, liquid medium test tube series dilution test. The format is cell-based. Conditions: E. coli C 165, 24 hours, 37°C. Put shortly: as §1
The subject of the next data set is Klebsiella 63. Briefly: MIC, liquid medium test tube series dilution test. The data set is classed as cell-based. Conditions: Klebsiella 63, 24 hours, 37°C. Put shortly:
as §1

The next data set relates to E. coli A 261. Briefly: MIC, liquid medium test tube series dilution test. The format is cell-based. Conditions: E. coli A 261, 24 hours, 37°C. In short, it runs like this: as §1
In another data set the test system is E. coli 183/58. Briefly: MIC, liquid medium test tube series dilution test. The data set is classed as cell-based. To be noted: E. coli 183/58, 24 hours, 37°C. In short, it runs like this:
as §1

Another data set concerns E. coli 14. The experiment in a line: MIC, liquid medium test tube series dilution test. The data set is classed as cell-based. Conditions: E. coli 14, 24 hours, 37°C. Put shortly: as §1
Another data set concerns Klebsiella K 10. Briefly: MIC, liquid medium test tube series dilution test. The format is cell-based. Conditions: Klebsiella K 10, 24 hours, 37°C. Put shortly: as §1
Data set [3] in a line: Serum level after subcutaneous administration, measured from microbiological activity against Proteus vulgaris 1017. Conditions: 150.000 units s.c. The data set is classed as in vivo, white mice. The source says: Serum level after subcutaneous ("s.c.") administration to white mice, in units/ml of serum, measured from the microbiological activity against Proteus vulgaris 1017 (ampicillin-resistant).

Data set [4] relates to Staph. aureus 133. Briefly: MIC, liquid medium test tube series dilution test. The data set is classed as cell-based, Staphylococcus aureus. To be noted: Staph. aureus 133, 24 hours, 37°C. In short, it runs like this:
as §1

The next data set has as its system Staph. aureus 1777 E. The experiment in a line: MIC, liquid medium test tube series dilution test. The format is cell-based, Staphylococcus aureus. To be noted: 24 hours, 37°C. In short, it runs like this: as §1
For another data set, the system named is Psdm. aerug. Walter. Briefly: MIC, liquid medium test tube series dilution test. Conditions: 24 hours, 37°C. The format is cell-based, Pseudomonas aerug. In short, it runs like this:
as §1

In a further data set the test system is Psdm. aerug. Bonn. Briefly: MIC, liquid medium test tube series dilution test. Conditions: 24 hours, 37°C. The format is cell-based, Pseudomonas aerug. Put shortly: as §1
The next data set has as its system Proteus vulg. 3400. Briefly: MIC, liquid medium test tube series dilution test. The format is cell-based, Proteus vulgaris. To be noted: Proteus vulg. 3400, 24 hours, 37°C. Put shortly: as §1
For a further data set, the system named is Proteus vulg. 1017. Briefly: MIC, liquid medium test tube series dilution test. The data set is classed as cell-based, Proteus vulgaris. Conditions: Proteus vulg. 1017, 24 hours, 37°C. In short, it runs like this: as §1
The nature of data set [5]: Acute toxicity (LD50), intravenous injection into the vein of the tail. The data set is classed as in vivo. To be noted: mouse, in vivo, iv. An excerpt: Acute toxicity (LD50) in white mice after
intravenous injection into the vein of the […]

Data set [6] relates to Gram-negative and Gram-positive bacteria. The experiment in a line: Antibacterial effect, general statements. To be noted: MIC comparison.

Four compounds from patent US3974140A, “Ureidoacetamido-penicillins” (Bayer Aktiengesellschaft, priority 1970, dated 1976) can be followed below.

For orientation: LD50 means the dose at which mortality reaches 50%. Lower therefore signals a more toxic substance.

`CN(C(=O)N[C@@H](C(=O)N[C@@H]1C(=O)N2[C@@H]1SC(C)(C)[C@@H]2C(=O)O)c1ccccc1)C(=O)c1ccccc1` [Example 59, Sodium D(-)-α-(3-benzoyl-3-methyl-ureido)-benzylpenicillin]: the Stability to acid result in “Acid stability” is listed as “remain microbiologically active at pH 1 for over one hour”. Moreover, the “Number of surviving mice” value is reported as 90% in the data set on Staph. aureus 133 [1] (1 day), 70% with Staph. aureus 133 [1] (2 days), 70% in the data set on Staph. aureus 133 [1] (3 days) and 70% in the data set on Staph. aureus 133 [1] (5 days). Further, the MIC in data set [2] is 100 units/ml; in the data set with E. coli C 165, 6.25 units/ml; against Klebsiella 63, 50 units/ml; with E. coli A 261, > 400 units/ml; in the data set on E. coli 183/58 it was 3.12 units/ml; against E. coli 14 it was 1.56 units/ml. Also, the MIC is 25 units/ml against Klebsiella K 10; < 0.78 units/ml in the data set on Staph. aureus 133 [4]; 100 units/ml against Staph. aureus 1777 E; 25 units/ml in the data set on Psdm. aerug. Walter; 12.5 units/ml against Psdm. aerug. Bonn; 12.5 units/ml against Proteus vulg. 3400. This compound showed an MIC against Proteus vulg. 1017 of 6.25 units/ml. The Serum level was 25 units/ml of serum in data set [3] (15 mins.), 20 units/ml of serum in data set [3] (30 mins.) and < 2 units/ml of serum in data set [3] (60 mins.).
As to `CC(=O)N(C)C(=O)N[C@@H](C(=O)N[C@@H]1C(=O)N2[C@@H]1SC(C)(C)[C@@H]2C(=O)O)c1ccccc1` [Example 66A, Sodium D(-)-α-(3-acetyl-3-methyl-ureido)-benzylpenicillin], the Stability to acid result in “Acid stability” is reported as “remain microbiologically active at pH 1 for over one hour”. The “Number of surviving mice” value was 100% in the data set on Staph. aureus 133 [1] (1 day), 90% in the data set with Staph. aureus 133 [1] (2 days), 70% in the data set with Staph. aureus 133 [1] (3 days) and 70% with Staph. aureus 133 [1] (5 days). Also, the MIC in data set [2] is listed as 25 units/ml; against E. coli C 165 it was 12.5 units/ml; in the data set with Klebsiella 63, 50 units/ml; in the data set on E. coli A 261, > 400 units/ml; with E. coli 183/58, 50 units/ml; in the data set with E. coli 14 it was 3.12 units/ml. The MIC against Klebsiella K 10 was 50 units/ml; against Staph. aureus 133 [4] it was < 0.78 units/ml; against Staph. aureus 1777 E, 50 units/ml; in the data set on Psdm. aerug. Walter, 12.5 units/ml; in the data set with Psdm. aerug. Bonn it was 6.25 units/ml; in the data set on Proteus vulg. 3400 it was 100 units/ml. This compound also gave an MIC in the data set with Proteus vulg. 1017 of 50 units/ml. Moreover, in [5], the 50% lethal dose (LD50) was > 4000 mg/kg.
With `CN(C(=O)N[C@@H](C(=O)N[C@@H]1C(=O)N2[C@@H]1SC(C)(C)[C@@H]2C(=O)O)c1ccccc1)C(=O)OC1CCCCC1` [Example 67, Sodium D(-)-α-(3-cyclohexyloxycarbonyl-3-methyl-ureido)-benzylpenicillin], in data set [6], the “Biological activity compared between penicillin (A) and penicillin (B)” value was “identical within the limit of error”. Besides, the MIC is 100 units/ml in data set [2]; 6.25 units/ml against E. coli C 165; 6.25 units/ml against E. coli C 165 (listed as (B) of Example 29); 100 units/ml against Klebsiella 63; 400 units/ml against E. coli A 261; 400 units/ml in the data set with E. coli A 261 (listed as (B) of Example 29). Further, the MIC in the data set on E. coli 183/58 is on record as 1.56 units/ml; with E. coli 183/58 (listed as (B) of Example 29), 1.56 units/ml; against E. coli 14, 1.56 units/ml; against E. coli 14 (listed as (B) of Example 29), 1.56 units/ml; with Klebsiella K 10, 100 units/ml; in the data set with Klebsiella K 10 (listed as (B) of Example 29), 100 units/ml. Also, the MIC in the data set with Staph. aureus 133 [4] is listed as < 0.78 units/ml; with Staph. aureus 133 [4] (listed as (B) of Example 29), < 0.7 units/ml; with Staph. aureus 1777 E, 400 units/ml; in the data set on Psdm. aerug. Walter, 50 units/ml; in the data set with Psdm. aerug. Bonn, 25 units/ml; against Proteus vulg. 3400, 6.25 units/ml. In addition, the MIC against Proteus vulg. 3400 (listed as (B) of Example 29), in the data set with Proteus vulg. 1017 and with Proteus vulg. 1017 (listed as (B) of Example 29) was 6.25 units/ml each time.
In the case of `C=CCOC(=O)N(C)C(=O)N[C@@H](C(=O)N[C@@H]1C(=O)N2[C@@H]1SC(C)(C)[C@@H]2C(=O)O)c1ccccc1` [Example 68, Sodium D(-)-α-(3-allyloxycarbonyl-3-methyl-ureido)-benzylpenicillin], the “Biological activity compared between penicillin (A) and penicillin (B)” value in data set [6] is given as “identical within the limit of error”. Moreover, the MIC in data set [2] is 50 units/ml; in [2] (listed as (B) of Example 30), 50 units/ml; in the data set on E. coli C 165, 12.5 units/ml; against E. coli C 165 (listed as (B) of Example 30) it was 12.5 units/ml; against Klebsiella 63, 25 units/ml; in the data set on Klebsiella 63 (listed as (B) of Example 30), 25 units/ml. Further, the MIC is on record as > 400 units/ml with E. coli A 261; 6.25 units/ml in the data set with E. coli 183/58; 6.25 units/ml against E. coli 183/58 (listed as (B) of Example 30); 3.12 units/ml against E. coli 14; 3.12 units/ml with E. coli 14 (listed as (B) of Example 30); 50 units/ml with Klebsiella K 10. Also, the MIC in the data set with Klebsiella K 10 (listed as (B) of Example 30) was 50 units/ml; against Staph. aureus 133 [4] it was < 0.78 units/ml; against Staph. aureus 133 [4] (listed as (B) of Example 30) it was 0.78 units/ml; against Staph. aureus 1777 E it was 50 units/ml; in the data set on Psdm. aerug. Walter, 12.5 units/ml; against Psdm. aerug. Walter (listed as (B) of Example 30) it was 12.5 units/ml. Also, the MIC with Psdm. aerug. Bonn is recorded as 12.5 units/ml; against Psdm. aerug. Bonn (listed as (B) of Example 30), 12.5 units/ml; in the data set with Proteus vulg. 3400 it was 25 units/ml; in the data set with Proteus vulg. 3400 (listed as (B) of Example 30) it was 25 units/ml; against Proteus vulg. 1017, 12.5 units/ml; against Proteus vulg. 1017 (listed as (B) of Example 30), 12.5 units/ml.
